Measured values from patent publication US10233195B2, “Anti-fibrotic pyridinones” (InterMune, Inc., priority 2014, dated 2019).

How the values were obtained:
[1] = test system: TGF-b induced Endothelin-1 production; assay: ET-1 assay: inhibitory effect on TGF-b induced endothelin-1 production; format: cell-based; details: Homo sapiens, Fibroblast; fibroblasts, stimulant (TGFb, serum, LPA etc), ET-1 in media by ELISA, 4-parameter fit
Procedure, shortened: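 Fibroblasts (primary human lung/dermal, HFL-1, 3T3) serum-starved 0-48 h, preincubated ~30 min with compound, then stimulated (TGFb, serum or LPA) for 16-48 h. Secreted ET-1 measured by ELISA; EC50 from 4-parameter logistic fit, with CC50 from ATPlite in the same wells.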

[2] = test system: Fibroblasts (primary human lung and dermal, HFL-1, 3T3 etc); assay: Cell proliferation assay (BrdU incorporation); format: cell-based; details: HFL1, stimulant (LPA, TGFb, serum etc), 50% inhibition of the increase of BrdU incorporation
Description: Assay of Inhibitory Effect on Cell Proliferation (BrdU Incorporation)
Fibroblasts (primary human lung and dermal, HFL-1, 3T3 etc) were plated on a 96-well plate and serum starved for 24-48 hours. The media were then exchanged for media containing stimulants (LPA, TGFb, serum etc) and cultured further for 16-24 hours before BrdU addition. After culturing for another 8 hours, cells were washed with PBS and the amount of BrdU incorporated into the cells was assayed by absorbance at 450 nm using the Cell proliferation ELISA system (RPN250, Amersham LIFE SCIENCE). The difference between the amount of BrdU incorporated in the stimulant-added well and the amount of BrdU incorporated in the well containing no stimulant represented the amount of BrdU incorporation accelerated by stimulant. The increase of BrdU incorporation without the addition of test compounds was set as 100% and the concentration of compound with 50% inhibition in the increase of BrdU incorporation (IC50 value) was determined. The test compounds were added 0-30 min before stimulant addition.
Compounds of some embodiments were prepared according to synthetic methods described herein and assay data obtained for IC50 for BrdU inhibition. The assay data obtained is presented in Table 3, in which A=less than 50 μM, B=greater than or equal to 50 μM and less than or equal to 200 μM; and C=greater than 200 μM.

| SMILES | EC50 [1] | IC50 [2] |
| --- | --- | --- |
| CC(=O)c1ccc(=O)n(-c2ccc(F)cc2)c1 [Compound 13] | > 200 µM | > 200 µM |
| COCCOCCOCCOc1ccc(-n2cc(C(C)=O)ccc2=O)cc1 [Compound 21] | > 200 µM | > 200 µM |
| O=c1ccc2c(n1-c1ccc(OC(F)(F)F)cc1)CCC2 [Compound 28] | 50 to 200 µM | 50 to 200 µM |
| Cc1cn(-c2ccccc2)c(=O)c2c1CCCC2 [Compound 29] | 50 to 200 µM | > 200 µM |
| Cn1cc(-c2cn(-c3ccccc3)c(=O)c3c2CCCC3)cn1 [Compound 31] | < 50 µM | 50 to 200 µM |
| Cn1cc(-c2cn(-c3ccc(OC(F)(F)F)cc3)c(=O)c3nsnc23)cn1 [Compound 41] | – | < 50 µM |
| Cn1cc(-c2cn(-c3ccc(OC(F)(F)F)cc3)c(=O)c3cccnc23)cn1 [Compound 43] | < 50 µM | > 200 µM |
| O=c1c2nccnc2c(-c2ccc(F)cc2)cn1-c1ccc(OC(F)(F)F)cc1 [Compound 46] | < 50 µM | < 50 µM |
| Cn1cc(-c2cn(-c3ccc(OC(F)(F)F)cc3)c(=O)c3nccnc23)cn1 [Compound 47] | < 50 µM | < 50 µM |
| Cc1cn(C)c2c(=O)n(-c3ccc(OC(F)(F)F)cc3)cc(-c3ccc(F)cc3)c12 [Compound 49] | < 50 µM | < 50 µM |
| Cn1cc(-c2cn(-c3ccc(OC(F)(F)F)cc3)c(=O)c3c2OCC(=O)N3Cc2ccccc2)cn1 [Compound 50] | > 200 µM | < 50 µM |
| O=C1COc2c(-c3ccc(F)cc3)cn(-c3ccc(OC(F)(F)F)cc3)c(=O)c2N1Cc1ccccc1 [Compound 51] | > 200 µM | > 200 µM |
| O=C1COc2c(-c3ccc(F)cc3)cn(-c3ccc(OC(F)(F)F)cc3)c(=O)c2N1 [Compound 52] | > 200 µM | > 200 µM |
| CN1C(=O)COc2c(-c3ccc(F)cc3)cn(-c3ccc(OC(F)(F)F)cc3)c(=O)c21 [Compound 53] | > 200 µM | > 200 µM |
| Cn1cnc2c(-c3ccc(F)cc3)cn(-c3ccc(OC(F)(F)F)cc3)c(=O)c21 [Compound 58] | < 50 µM | < 50 µM |
| Cn1cc(-c2cn(-c3ccc(OC(F)(F)F)cc3)c(=O)c3ncn(C)c23)cn1 [Compound 59] | < 50 µM | < 50 µM |
| CCn1ccc2c(-c3cnn(C)c3)cn(-c3ccc(OC(F)(F)F)cc3)c(=O)c21 [Compound 60] | < 50 µM | < 50 µM |
| CCOc1ccc(-n2cc(Br)c3nccnc3c2=O)c(C)c1 [Compound 61] | < 50 µM | < 50 µM |
| CCOc1ccc(-n2cc(-c3cnn(C)c3)c3nccnc3c2=O)c(C)c1 [Compound 63] | < 50 µM | < 50 µM |
| O=C(c1ccccc1)n1cc(-c2ccc(=O)n(-c3ccccc3)c2)cn1 [Compound 68] | > 200 µM | > 200 µM |
| CS(=O)(=O)n1cc(-c2ccc(=O)n(-c3ccccc3)c2)cn1 [Compound 71] | > 200 µM | > 200 µM |
| CCOC(=O)n1cc(-c2ccc(=O)n(-c3ccccc3)c2)cn1 [Compound 73] | < 50 µM | > 200 µM |
| CC(C)NC(=O)n1cc(-c2ccc(=O)n(-c3ccccc3)c2)cn1 [Compound 75] | 50 to 200 µM | 50 to 200 µM |

| SMILES | EC50 [1] | IC50 [2] |
| --- | --- | --- |
| Cc1ccc(=O)n(CCc2ccccc2)c1 [Compound 80] | 50 to 200 µM | > 200 µM |
| O=c1cc(O)c(-c2ccc(F)cc2)cn1-c1ccc(OC(F)(F)F)cc1 [Compound 86] | 50 to 200 µM | < 50 µM |
| O=c1cc(Cl)c(-c2ccc(F)cc2)cn1-c1ccc(OC(F)(F)F)cc1 [Compound 87] | < 50 µM | < 50 µM |
| O=C1CNCCN1CCOc1cc(=O)n(-c2ccc(OC(F)(F)F)cc2)cc1-c1ccc(F)cc1 [Compound 101] | > 200 µM | 50 to 200 µM |
| CCOc1ccc(-n2cc(-c3ccc(F)cc3)c(OC)cc2=O)c(C)c1 [Compound 119] | < 50 µM | < 50 µM |
| COc1cc(=O)n(-c2ccc(OC(F)(F)F)cc2)cc1-c1cnn(C)c1 [Compound 120] | < 50 µM | < 50 µM |
| Cn1cc(-c2cn(-c3ccc(OC(F)(F)F)cc3)c(=O)cc2NCc2ccccc2)cn1 [Compound 123] | < 50 µM | < 50 µM |
| CN(Cc1ccccc1)c1cc(=O)n(-c2ccc(OC(F)(F)F)cc2)cc1-c1cnn(C)c1 [Compound 126] | < 50 µM | < 50 µM |
| CCOc1ccc(Oc2cc(=O)n(-c3ccc(OC(F)(F)F)cc3)cc2-c2cnn(C)c2)cc1Cl [Compound 155] | – | < 50 µM |
| CCOc1ccc(-n2cc(-c3cn(C)nc3C(F)(F)F)c(C)cc2=O)c(C)c1 [Compound 239] | – | < 50 µM |
| CCOc1ccc(-n2cc(-c3cnn(C)c3)c(Cl)cc2=O)c(C)c1 [Compound 538] | – | 50 to 200 µM |
| CCOc1ccc(-n2cc(-c3ccc(F)cc3)c(OCCOC)cc2=O)c(C)c1 [Compound 551] | – | < 50 µM |
| CCn1c(=O)oc2cc(-c3c[nH]c(=O)cc3C)ccc21 [Compound 564] | – | < 50 µM |
| CCn1cnc2c(=O)n(-c3ccc(OC(F)(F)F)cc3)cc(-c3cn[nH]c3)c21 [Compound 640] | – | > 200 µM |
| CCn1ncc2c(-c3cnn(C)c3)cn(-c3ccc(OC(F)(F)F)cc3)c(=O)c21 [Compound 658] | – | > 200 µM |
| Cc1cc(=O)[nH]cc1-c1ccc2c(c1)N(C)C(=O)CO2 [Compound 662] | – | > 200 µM |
| Cn1cc(-c2cn(-c3ccc(OC(F)(F)F)cc3)c(=O)cc2NCc2cccnn2)cn1 [Compound 664] | – | < 50 µM |
| Cc1nc2c(=O)n(-c3ccc(OC(F)(F)F)cc3)cc(-c3cnn(C)c3)c2n1C [Compound 674] | 50 to 200 µM | – |
| Cc1nc2c(=O)n(-c3ccc(OC(F)(F)F)cc3)cc(-c3cn[nH]c3)c2n1C [Compound 675] | < 50 µM | – |
| CC(C)n1nnc2c(-c3cnn(C)c3)cn(-c3ccc(OC(F)(F)F)cc3)c(=O)c21 [Compound 676] | < 50 µM | – |
| O=c1c2[nH]nnc2c(-c2cn[nH]c2)cn1-c1ccc(OC(F)(F)F)cc1 [Compound 678] | 50 to 200 µM | – |
| Cn1cc(-c2cn(-c3ccc(OC(F)(F)F)cc3)c(=O)c3nn(CCF)nc23)cn1 [Compound 679] | < 50 µM | – |
| CCn1nc2c(-c3ccc(F)cc3)cn(-c3ccc(OC(F)(F)F)cc3)c(=O)c2n1 [Compound 680] | > 200 µM | – |

| SMILES | EC50 [1] | IC50 [2] |
| --- | --- | --- |
| Cn1cc(-c2cn(-c3ccc(OC(F)(F)F)cc3)c(=O)c3c2CCN3C(=O)OC(C)(C)C)cn1 [Compound 690] | < 50 µM | – |
| CCOCCn1ccc2c(-c3cn[nH]c3)cn(-c3ccc(OC(F)(F)F)cc3)c(=O)c21 [Compound 691] | < 50 µM | – |
| CC(C)OCCn1ccc2c(-c3cn[nH]c3)cn(-c3ccc(OC(F)(F)F)cc3)c(=O)c21 [Compound 692] | < 50 µM | – |
| CC(=O)N1CCc2c(-c3cnn(C)c3)cn(-c3ccc(OC(F)(F)F)cc3)c(=O)c21 [Compound 693] | 50 to 200 µM | – |
| CCn1ccc2c(=O)n(-c3ccc(OC(F)(F)F)cc3)cc(-c3cnn(C)c3)c21 [Compound 694] | < 50 µM | – |
| Cn1cc(-c2cn(-c3ccc(OC(F)(F)F)cc3)c(=O)c3cc[nH]c23)cn1 [Compound 695] | < 50 µM | – |
| CCOc1ccc(-n2cc(-c3cnn(C)c3)c(OCCOC(C)C)cc2=O)c(C)c1 [Compound 696] | 50 to 200 µM | – |
| CCOc1ccc(-n2cc(-c3cnn(C)c3)c(OCCOCCOC)cc2=O)c(C)c1 [Compound 697] | 50 to 200 µM | – |
| CCOc1ccc(-n2cc(-c3cnn(C)c3)c(OC3CCOCC3)cc2=O)c(C)c1 [Compound 698] | 50 to 200 µM | – |
| CCOc1ccc(-n2cc(-c3cnn(C)c3)c(NCc3ccccn3)cc2=O)c(C)c1 [Compound 699] | 50 to 200 µM | – |
| CCOc1ccc(-n2cc(-c3cnn(C)c3)c(NCc3ccncc3)cc2=O)c(C)c1 [Compound 700] | 50 to 200 µM | – |
| CCOc1ccc(-n2cc(-c3cnn(C)c3)c(NCc3cccnc3)cc2=O)c(C)c1 [Compound 701] | < 50 µM | – |
| CCOc1ccc(-n2cc(-c3cnn(C)c3)c(NCc3ccc(F)cc3F)cc2=O)c(C)c1 [Compound 702] | < 50 µM | – |
| CCOc1ccc(-n2cc(-c3cnn(C)c3)c(NCc3cc(F)cc(F)c3)cc2=O)c(C)c1 [Compound 703] | < 50 µM | – |
| CCOc1ccc(-n2cc(-c3cnn(C)c3)c(NCc3ccc(C#N)cc3)cc2=O)c(C)c1 [Compound 704] | < 50 µM | – |
| CCOc1ccc(-n2cc(-c3cnn(C)c3)c(N(C)Cc3ccccc3)cc2=O)c(C)c1 [Compound 705] | < 50 µM | – |
| CCOc1ccc(CNc2cc(=O)n(-c3ccc(OCC)cc3C)cc2-c2cnn(C)c2)c(C)c1 [Compound 706] | < 50 µM | – |
| CCOc1ccc(-n2cc(-c3cnn(C)c3)c(NCc3ccc(OCCOC)cc3)cc2=O)c(C)c1 [Compound 707] | < 50 µM | – |
| Cn1cc(-c2cc(=O)n(-c3ccc(OC(F)(F)F)cc3)cc2-c2cnn(C)c2)cn1 [Compound 708] | 50 to 200 µM | – |
| O=c1ccc(C(F)(F)F)cn1-c1ccc(NCCN2CCN(CCO)CC2)cc1Cl [Compound 709] | 50 to 200 µM | – |
| Cc1nc2ccn(-c3ccc(OC(F)(F)F)cc3)c(=O)c2s1 [compound 585] | > 200 µM | – |
